According to publication PMC8838408, “Antileishmanial Effects of Acetylene Acetogenins from Seeds of Porcelia macrocarpa (Warm.) R.E. Fries (Annonaceae) and Semisynthetic Derivatives” (Molecules, 2022):
“Also recorded” adds a separate entry of the source. Where two headings read alike, the source gives them in different places.

Assays:
[1] = Cytotoxicity against mammalian cells (MTT assay); format: cell-based; details: mouse, NCTC clone 929 cells, highest concentration 200 μM
Procedure: (§1) Macrophages were collected from the peritoneal cavity of female BALB/c mice by washing with RPMI-1640 without phenol red, supplemented with 10% FBS at 37 °C in a humidified atmosphere containing 5% CO2. NCTC (clone 929) cells were maintained in RPMI-1640 (without phenol red and supplemented with 10% FBS) at 37 °C in the same conditions of the peritoneal macrophages.
The 50% cytotoxic concentration (CC50) was determined in NCTC clone 929 cells. NCTC cells were seeded at 6 × 10^4 cells/well in 96-well microplates and incubated with serial dilutions of the tested compounds or standard drug (miltefosine) to the highest concentration of 200 μM for 48 h at 37 °C in a 5% CO2-humidified incubator. An MTT assay determined the viability of the cells at 570 nm. The selectivity index (SI) was determined considering the following equation: CC50 NCTC cells/IC50 parasites.
(§2) The data obtained represent the mean and standard deviation of duplicate samples from at least three independent assays. IC50 and CC50 values were calculated using sigmoid dose–response curves in Graph Pad Prism 5.0 software (GraphPad Software, San Diego, CA, USA).

[2] = tested on: intracellular amastigote forms of Leishmania (L.) infantum; experiment: Activity against L. (L.) infantum intracellular amastigotes in infected peritoneal macrophages; format: cell-based; details: for SI (selectivity index): CC50 NCTC cells/IC50 parasites; for IC50 / IC50 L. (L.) infantum: 96 h; for IC50: read-out: IC50 L. (L.) infantum
Procedure: L. (L.) infantum (MHOM/BR/1972/LD) was maintained through successive passages in golden hamsters up to 60–70 days post-infection. Amastigotes were harvested from spleens of infected hamsters by differential centrifugation.
as §1
The 50% inhibitory concentrations (IC50) against intracellular amastigotes for tested compounds were determined in infected macrophages. Peritoneal macrophages were obtained as described in the Section 3.6.3, and L. (L.) infantum amastigotes were obtained from spleens of infected hamsters by differential centrifugation. Peritoneal macrophages were seeded at 1 × 10^5 cells per well in Nunc™ 16-well slide chambers (Aldrich, St. Louis, MO, USA) for 24 h at 37 °C in a 5% CO2-humidified incubator. Next, amastigotes were isolated from a spleen of an infected hamster as described, counted, seeded at a 1:10 macrophages/amastigotes ratio, and incubated for 24 h. Non-internalized parasites were removed by washing twice with a culture medium. Then, the macrophages were incubated with compounds or standard drug (miltefosine) in a range of 100 to 0.78 μM for 96 h at 37 °C in a 5% CO2-humidified incubator, using miltefosine as a standard drug. At the end of the assay, the cells were fixed in methanol, stained with Giemsa, and observed under a digital light microscope (EVOS M5000, Thermo, Waltham, MA, USA) to determine the number of infected macrophages out of 400 cells.
as §2

[3] = Peritoneal macrophage, intracellular amastigotes in BALB/c peritoneal macrophages, 100 to 0.78 μM, NA: non-active
[4] = intracellular amastigotes in BALB/c peritoneal macrophages, 100 to 0.78 μM, NA: non-active

IC50 [2, 3] [µM]	Compound	CC50 at 48 h [1] [µM]	SI (selectivity index) [2]	IC50 [2, 4] [µM]	IC50 ([2]; Peritoneal macrophage) [µM]	IC50 L. (L.) infantum [2, 4]
–	C=CCCCCCCC#CCCCCCCCCCCC1=C[C@@H](C)OC1=O [Compound 1b, 4R-Methyl-2-(n-eicos-11′-yn-19′-enil)but-2-enolide]	> 200	>8.6	–	23.1 ± 5.4	–
17.8 ± 1.4	CCCCCCCCCCCCCCCCOP(=O)([O-])OCC[N+](C)(C)C [Miltefosine, reference compound]	116 ± 5.3	6.5	–	–	–
–	CCCCCCCCC#CCCCCCCCCCCC1=C[C@@H](C)OC1=O [Compound 2b, 4R-Methyl-2-(n-eicos-11′-ynil)but-2-enolide]	> 200	–	–	–	no activity
29.9 ± 9.7	C=CCCCCCCC#CCCCCCCCCCC[C@@H]1C(=O)O[C@H](C)[C@@H]1O [Compound 1, (2S,3R,4R)-3-hydroxy-4-methyl-2-(n-eicos-11′-yn-19′-enyl)butanolide]	> 200	>6.7	–	–	–
–	CCCCCCCCCCCCCCCCCCCCC1=C[C@@H](C)OC1=O [Compound 3b, 4R-Methyl-2-(n-eicosanil)but-2-enolide]	> 200	–	–	–	lack of activity; also recorded: no activity
–	CCCCCCCCCCCCCCCCCCCCC1C(=O)OC(C)C1OC(C)=O [Compound 3a, (2S,3R,4R)-3-Acetoxy-4-methyl-2-(n-eicosanil)butanolide]	> 200	–	–	–	lack of activity; also recorded: no activity
–	CCCCCCCCC#CCCCCCCCCCC[C@@H]1C(=O)O[C@H](C)[C@@H]1OC(C)=O [Compound 2a, (2S,3R,4R)-3-Acetoxy-4-methyl-2-(n-eicos-11′-ynil)butanolide]	> 200	–	–	–	no activity
> 100	CCCCCCCCC#CCCCCCCCCCC[C@@H]1C(=O)O[C@H](C)[C@@H]1O [Compound 2, (2S,3R,4R)-3-hydroxy-4-methyl-2-(n-eicos-11′-ynyl)butanolide]	> 200	–	–	–	inactive
> 100	CCCCCCCCCCCCCCCCCCCCC1C(=O)OC(C)C1O [Compound 3, (2S,3R,4R)-3-Hydroxy-4-methyl-2-(n-eicosanil)butanolide]	> 200	–	–	–	lack of activity; also recorded: no activity

Compound	IC50 [2, 3] [µM]	CC50 at 48 h [1] [µM]	SI (selectivity index) [2]	IC50 [2, 4] [µM]	IC50 ([2]; Peritoneal macrophage) [µM]	IC50 L. (L.) infantum [2, 4]
C=CCCCCCCC#CCCCCCCCCCC[C@@H]1C(=O)O[C@H](C)[C@@H]1OC(C)=O [Compound 1a, (2S,3R,4R)-3-Acetoxy-4-methyl-2-(n-eicos-11′-yn-19′-enil)butanolide]	43.3	> 200	>4.6	43.4 ± 3.9	–	–
